Source: patent US20230086683A1, “PLATELET STORAGE METHODS AND COMPOSITIONS” (Platefuse, Inc., priority 2020, published 2023)

These molecules were tested on washed human platelet suspension (assay: Inhibition of collagen-induced platelet aggregation (Lumi-Aggregometer)). Conditions: washed human platelets, 37° C., 2 min preincubation, collagen 1-4 μg/ml, read out at 6 min after induction, read-out: IC50 (concentration at which 50% aggregation is reached), platelet aggregation inhibitors.
Type: cell-based
Procedure: Platelet shape change in washed platelets was monitored using an aggregometer and the decrease in light transmittance following addition of an agonist (Huzoor et al., 1993). For the purpose of this analysis, collagen was used as the agonist. Briefly, a washed human platelet suspension was incubated at 37° C. in a Lumi-Aggregometer (Chrono-Log Corporation) with stirring at 900 rpm, followed by the addition of dimethylsulfoxide (DMSO) as a control vehicle, or various compounds dissolved in DMSO. After incubating the samples with the respective compound for 2 minutes, platelet aggregation was induced by, adding collagen (1-4 μg/ml) and the relative aggregation value was read out at 6 min after the induction. A dose response for each compound was derived.

Row | SMILES | IC50 [µM]
1 | O=C(NNc1ccnc2ccccc12)c1cc2ccccc2[nH]1 [UC-177626] | 10.1
2 | O=C(NNc1ccnc2c(C(F)(F)F)cccc12)c1cc2ccccc2[nH]1 [UC-177628] | 5.8
3 | O=C(NNc1ccnc2c(C(F)(F)F)cccc12)c1ccc(Cl)c(Cl)c1 [UC-177618] | 1.5
4 | O=C(NNc1ccnc2ccccc12)c1ccc(Cl)c(Cl)c1 [UC-177617] | 16.2
5 | O=C(NNc1ccnc2cc(Cl)ccc12)c1ccc(Cl)c(Cl)c1 [UC-177619] | 1.4
6 | O=C(NNc1ccnc2cc(C(F)(F)F)ccc12)c1cc2ccccc2[nH]1 [UC-177627] | 4.3

Next, values leading:

Row | IC50 [µM] | SMILES
7 | 2.3 | Cc1ccc(C(=O)NNc2ccnc3c(C(F)(F)F)cccc23)cc1 [UC-177633]
8 | 2.3 | O=C(NNc1ccnc2cc(Cl)ccc12)c1cc2ccccc2[nH]1 [UC-177629]
9 | 6.7 | Cc1ccc(C(=O)NNc2ccnc3cc(Cl)ccc23)cc1 [UC-177634]
